Assay [1] deals with Histone acetyltransferase KAT2A (Homo sapiens) (UniProt Q92830). Briefly: Binding affinity to human GCN5L2 expressed in bacterial system assessed as remaining binding level at 1 uM by BROMOscan assay relative to control.
Assay [2] concerns the target Transcription initiation factor TFIID subunit 1 (Homo sapiens) (UniProt P21675). Briefly: Binding affinity to human TAF1 bromodomain 2 expressed in bacterial system assessed as remaining binding level at 1 uM by BROMOscan assay relative to control.
In assay [3] the target is T1, E3 ubiquitin-protein ligase TRIM33 (Homo sapiens) (UniProt Q9UPN9).
T1 sequence (whole entry): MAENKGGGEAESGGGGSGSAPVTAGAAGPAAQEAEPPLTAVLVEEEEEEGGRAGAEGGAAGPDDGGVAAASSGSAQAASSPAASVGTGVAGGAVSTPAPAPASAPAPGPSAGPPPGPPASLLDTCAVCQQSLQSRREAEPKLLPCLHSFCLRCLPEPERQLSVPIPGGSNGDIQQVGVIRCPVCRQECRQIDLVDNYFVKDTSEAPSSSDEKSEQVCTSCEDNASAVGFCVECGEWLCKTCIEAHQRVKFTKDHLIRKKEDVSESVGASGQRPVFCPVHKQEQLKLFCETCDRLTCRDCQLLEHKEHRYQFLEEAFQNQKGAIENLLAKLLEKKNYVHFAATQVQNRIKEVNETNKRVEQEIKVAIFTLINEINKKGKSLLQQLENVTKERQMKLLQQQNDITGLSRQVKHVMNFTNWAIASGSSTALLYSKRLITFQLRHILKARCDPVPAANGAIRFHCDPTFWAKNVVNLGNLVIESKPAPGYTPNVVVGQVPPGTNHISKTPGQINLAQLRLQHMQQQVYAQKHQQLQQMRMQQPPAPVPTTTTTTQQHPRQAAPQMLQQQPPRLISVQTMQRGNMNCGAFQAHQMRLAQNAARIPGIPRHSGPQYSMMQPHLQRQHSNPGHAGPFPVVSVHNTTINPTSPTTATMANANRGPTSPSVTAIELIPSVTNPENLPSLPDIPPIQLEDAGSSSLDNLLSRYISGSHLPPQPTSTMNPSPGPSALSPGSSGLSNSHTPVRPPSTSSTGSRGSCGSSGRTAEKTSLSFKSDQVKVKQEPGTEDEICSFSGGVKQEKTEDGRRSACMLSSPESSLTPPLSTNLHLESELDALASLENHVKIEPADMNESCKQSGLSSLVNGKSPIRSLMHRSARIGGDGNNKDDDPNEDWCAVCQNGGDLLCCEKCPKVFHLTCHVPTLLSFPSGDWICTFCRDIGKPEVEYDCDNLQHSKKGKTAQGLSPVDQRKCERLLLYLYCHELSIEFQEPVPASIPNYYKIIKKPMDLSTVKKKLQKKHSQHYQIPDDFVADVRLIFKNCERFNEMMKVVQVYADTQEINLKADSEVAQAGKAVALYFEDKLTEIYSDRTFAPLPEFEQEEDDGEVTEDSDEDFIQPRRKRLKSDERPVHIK
Nature of the assay: Binding affinity to human TRIM33-phd-bromo expressed in bacterial system assessed as remaining binding level at 1 uM by BROMOscan assay relative to control.

Assay [4] deals with T2, Bromodomain-containing protein 7 (Homo sapiens) (UniProt Q9NPI1).
T2 sequence (whole entry): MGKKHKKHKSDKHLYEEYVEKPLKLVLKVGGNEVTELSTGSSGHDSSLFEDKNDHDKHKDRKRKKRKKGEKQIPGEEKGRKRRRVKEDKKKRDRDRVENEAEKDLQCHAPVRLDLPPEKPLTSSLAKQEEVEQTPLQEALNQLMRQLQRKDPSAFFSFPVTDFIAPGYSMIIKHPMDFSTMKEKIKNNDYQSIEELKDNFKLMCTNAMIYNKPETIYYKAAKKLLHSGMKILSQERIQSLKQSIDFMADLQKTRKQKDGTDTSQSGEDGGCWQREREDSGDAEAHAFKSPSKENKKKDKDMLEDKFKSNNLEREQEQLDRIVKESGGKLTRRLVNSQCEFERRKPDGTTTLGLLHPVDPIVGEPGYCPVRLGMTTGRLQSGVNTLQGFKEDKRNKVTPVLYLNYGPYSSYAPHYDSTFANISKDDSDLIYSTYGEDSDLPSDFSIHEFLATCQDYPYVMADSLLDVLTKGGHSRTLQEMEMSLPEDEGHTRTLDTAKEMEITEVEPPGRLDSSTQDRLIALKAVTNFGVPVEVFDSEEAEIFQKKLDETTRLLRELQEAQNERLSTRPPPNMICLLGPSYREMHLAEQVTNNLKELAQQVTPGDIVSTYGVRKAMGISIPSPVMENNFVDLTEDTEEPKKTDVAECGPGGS
Nature of the assay: Binding affinity to human BRD7 expressed in mammalian system assessed as remaining binding level at 1 uM by BROMOscan assay relative to control.

For assay [5], the target named is SWI/SNF-related matrix-associated actin-dependent regulator of chromatin subfamily A member 4 (Homo sapiens) (UniProt P51532). Nature of the assay: Binding affinity to human SMARCA4 expressed in bacterial system assessed as remaining binding level at 1 uM by BROMOscan assay relative to control.
Chain of SWI/SNF-related matrix-associated actin-dependent regulator of chromatin subfamily A member 4 (Homo sapiens) (P51532 whole entry): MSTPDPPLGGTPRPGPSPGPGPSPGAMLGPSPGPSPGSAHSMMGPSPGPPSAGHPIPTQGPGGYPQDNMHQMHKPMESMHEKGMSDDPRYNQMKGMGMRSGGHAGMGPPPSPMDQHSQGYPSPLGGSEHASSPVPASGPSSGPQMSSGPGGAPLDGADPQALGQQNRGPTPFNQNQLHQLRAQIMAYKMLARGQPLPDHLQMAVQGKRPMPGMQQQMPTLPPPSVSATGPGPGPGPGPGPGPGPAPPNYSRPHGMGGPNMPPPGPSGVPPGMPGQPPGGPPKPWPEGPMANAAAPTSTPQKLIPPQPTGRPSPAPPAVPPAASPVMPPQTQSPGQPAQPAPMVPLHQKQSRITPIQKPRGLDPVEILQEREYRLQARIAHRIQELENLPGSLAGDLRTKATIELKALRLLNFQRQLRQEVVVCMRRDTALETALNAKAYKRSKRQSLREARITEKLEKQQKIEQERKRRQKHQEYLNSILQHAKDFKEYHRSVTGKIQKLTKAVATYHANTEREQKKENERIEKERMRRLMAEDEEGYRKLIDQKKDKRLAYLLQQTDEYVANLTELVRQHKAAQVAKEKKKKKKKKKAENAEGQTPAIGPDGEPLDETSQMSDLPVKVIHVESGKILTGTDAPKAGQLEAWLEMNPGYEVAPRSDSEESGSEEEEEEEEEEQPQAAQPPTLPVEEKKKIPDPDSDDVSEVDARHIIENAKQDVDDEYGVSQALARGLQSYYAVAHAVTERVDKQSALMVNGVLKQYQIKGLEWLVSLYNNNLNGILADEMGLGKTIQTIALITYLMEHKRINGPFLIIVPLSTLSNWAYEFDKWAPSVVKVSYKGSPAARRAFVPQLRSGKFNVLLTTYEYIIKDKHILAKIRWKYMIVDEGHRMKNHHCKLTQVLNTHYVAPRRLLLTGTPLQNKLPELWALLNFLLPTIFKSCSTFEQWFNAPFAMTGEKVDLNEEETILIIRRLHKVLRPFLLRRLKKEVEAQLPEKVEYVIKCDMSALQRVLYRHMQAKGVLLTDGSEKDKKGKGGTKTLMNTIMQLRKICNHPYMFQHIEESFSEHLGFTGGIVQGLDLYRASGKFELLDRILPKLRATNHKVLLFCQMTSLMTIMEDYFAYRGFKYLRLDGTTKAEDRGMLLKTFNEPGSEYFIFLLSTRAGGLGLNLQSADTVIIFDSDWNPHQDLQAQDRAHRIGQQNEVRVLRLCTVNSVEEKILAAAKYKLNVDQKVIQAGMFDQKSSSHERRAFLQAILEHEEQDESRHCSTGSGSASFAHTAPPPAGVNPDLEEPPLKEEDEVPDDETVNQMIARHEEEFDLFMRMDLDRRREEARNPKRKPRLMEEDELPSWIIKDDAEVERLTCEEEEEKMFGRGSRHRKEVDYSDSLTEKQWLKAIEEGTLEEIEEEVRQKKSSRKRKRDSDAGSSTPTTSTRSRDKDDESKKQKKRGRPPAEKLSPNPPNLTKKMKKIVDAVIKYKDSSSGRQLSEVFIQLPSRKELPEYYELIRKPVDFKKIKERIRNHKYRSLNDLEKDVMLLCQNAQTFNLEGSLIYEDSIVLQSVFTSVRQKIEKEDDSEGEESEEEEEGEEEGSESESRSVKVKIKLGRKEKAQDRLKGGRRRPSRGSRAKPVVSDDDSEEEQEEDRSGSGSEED

Chain of Histone acetyltransferase KAT2A (Homo sapiens) (Q92830 2-837 limits assumed): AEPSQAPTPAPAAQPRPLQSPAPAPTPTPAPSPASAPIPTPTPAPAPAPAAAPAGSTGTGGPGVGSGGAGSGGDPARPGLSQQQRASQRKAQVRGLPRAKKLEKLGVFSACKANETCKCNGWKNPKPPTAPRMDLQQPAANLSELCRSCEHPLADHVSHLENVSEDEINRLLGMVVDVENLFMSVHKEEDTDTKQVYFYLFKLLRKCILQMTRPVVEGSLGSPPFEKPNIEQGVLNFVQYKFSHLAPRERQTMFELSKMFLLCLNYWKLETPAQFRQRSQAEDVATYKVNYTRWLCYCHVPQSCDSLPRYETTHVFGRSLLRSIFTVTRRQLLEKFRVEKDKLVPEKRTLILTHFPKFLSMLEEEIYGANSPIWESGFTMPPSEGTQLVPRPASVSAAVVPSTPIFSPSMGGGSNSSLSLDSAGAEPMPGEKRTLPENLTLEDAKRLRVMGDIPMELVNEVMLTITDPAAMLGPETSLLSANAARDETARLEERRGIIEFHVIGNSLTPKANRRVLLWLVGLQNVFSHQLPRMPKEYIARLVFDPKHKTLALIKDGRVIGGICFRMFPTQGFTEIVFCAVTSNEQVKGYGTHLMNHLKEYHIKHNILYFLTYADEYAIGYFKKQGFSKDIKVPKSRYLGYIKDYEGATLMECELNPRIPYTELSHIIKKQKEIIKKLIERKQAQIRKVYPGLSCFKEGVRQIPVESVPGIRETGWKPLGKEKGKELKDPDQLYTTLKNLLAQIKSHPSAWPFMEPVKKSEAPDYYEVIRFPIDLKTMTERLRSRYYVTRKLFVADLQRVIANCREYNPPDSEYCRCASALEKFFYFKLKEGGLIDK
Chain of Transcription initiation factor TFIID subunit 1 (Homo sapiens) (P21675 whole entry): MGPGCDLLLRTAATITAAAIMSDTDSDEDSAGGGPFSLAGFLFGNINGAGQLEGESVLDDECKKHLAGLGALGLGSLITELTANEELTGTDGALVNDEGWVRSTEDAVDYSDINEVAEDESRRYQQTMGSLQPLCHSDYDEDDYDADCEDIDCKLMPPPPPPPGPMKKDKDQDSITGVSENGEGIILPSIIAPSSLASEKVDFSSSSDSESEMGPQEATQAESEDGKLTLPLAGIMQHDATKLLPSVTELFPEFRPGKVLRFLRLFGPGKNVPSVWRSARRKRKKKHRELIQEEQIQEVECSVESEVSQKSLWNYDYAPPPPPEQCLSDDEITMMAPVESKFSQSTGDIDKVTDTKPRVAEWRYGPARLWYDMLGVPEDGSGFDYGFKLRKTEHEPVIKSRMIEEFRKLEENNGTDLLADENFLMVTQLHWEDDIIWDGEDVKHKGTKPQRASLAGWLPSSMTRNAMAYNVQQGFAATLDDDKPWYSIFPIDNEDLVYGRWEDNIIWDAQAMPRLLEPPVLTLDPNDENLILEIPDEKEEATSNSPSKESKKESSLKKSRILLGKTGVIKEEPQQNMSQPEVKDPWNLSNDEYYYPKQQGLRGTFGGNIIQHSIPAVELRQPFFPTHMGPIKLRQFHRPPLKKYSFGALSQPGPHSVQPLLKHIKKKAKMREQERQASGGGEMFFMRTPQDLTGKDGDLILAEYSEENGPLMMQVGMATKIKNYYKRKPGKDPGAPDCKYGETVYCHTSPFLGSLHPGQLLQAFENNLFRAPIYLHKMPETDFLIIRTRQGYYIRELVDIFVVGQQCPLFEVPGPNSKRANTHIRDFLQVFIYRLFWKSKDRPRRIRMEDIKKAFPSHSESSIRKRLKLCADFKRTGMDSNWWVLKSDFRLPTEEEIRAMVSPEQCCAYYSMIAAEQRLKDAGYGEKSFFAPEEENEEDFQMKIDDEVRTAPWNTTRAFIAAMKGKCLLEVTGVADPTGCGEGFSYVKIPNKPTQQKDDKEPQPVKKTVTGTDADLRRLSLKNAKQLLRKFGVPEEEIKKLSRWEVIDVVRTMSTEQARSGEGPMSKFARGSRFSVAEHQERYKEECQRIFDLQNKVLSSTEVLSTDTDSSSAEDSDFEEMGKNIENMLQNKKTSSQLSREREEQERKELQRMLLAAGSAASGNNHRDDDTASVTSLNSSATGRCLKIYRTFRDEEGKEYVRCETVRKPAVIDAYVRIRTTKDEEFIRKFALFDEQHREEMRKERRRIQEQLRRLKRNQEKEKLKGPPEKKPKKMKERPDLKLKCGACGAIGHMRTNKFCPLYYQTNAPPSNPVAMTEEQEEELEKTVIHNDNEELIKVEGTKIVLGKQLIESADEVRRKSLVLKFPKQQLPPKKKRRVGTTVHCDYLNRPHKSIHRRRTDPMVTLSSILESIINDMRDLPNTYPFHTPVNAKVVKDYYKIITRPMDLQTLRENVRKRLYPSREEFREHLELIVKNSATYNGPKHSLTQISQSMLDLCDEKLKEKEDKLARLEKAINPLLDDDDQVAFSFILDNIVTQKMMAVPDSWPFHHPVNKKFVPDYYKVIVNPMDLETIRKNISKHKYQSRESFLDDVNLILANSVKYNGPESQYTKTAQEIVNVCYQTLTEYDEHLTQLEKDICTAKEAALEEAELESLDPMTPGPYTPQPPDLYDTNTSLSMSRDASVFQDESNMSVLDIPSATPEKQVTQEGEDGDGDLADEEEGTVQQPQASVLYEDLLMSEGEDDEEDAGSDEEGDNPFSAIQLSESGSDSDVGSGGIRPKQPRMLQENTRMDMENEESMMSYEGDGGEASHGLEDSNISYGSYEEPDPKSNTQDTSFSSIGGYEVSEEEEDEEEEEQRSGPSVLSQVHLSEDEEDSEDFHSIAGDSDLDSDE

For the compound `Cn1cc2c3c(c[nH]c3c1=O)CN(c1ccccn1)c1ccc(CS(C)(=O)=O)cc1-2`, the Activity in assay [1] was 84%; in assay [2] it was 15%; in assay [3], 83%; in assay [4], 96%; in assay [5], 56%.
For `Cn1cc2c3c(c[nH]c(=O)c31)-c1cc(CS(C)(=O)=O)ccc1N(c1ccc(F)cc1)C2`, the Activity was 87% in assay [1]; 95% in assay [2]; 100% in assay [3]; 100% in assay [4]; 86% in assay [5].
Regarding `Cn1cc2c3c(c[nH]c3c1=O)CN(c1ccc(F)cc1F)c1ccc(CS(C)(=O)=O)cc1-2`, the Activity in assay [1] came to 97%; in assay [2] it was 3.8%; in assay [3], 85%; in assay [4], 92%; in assay [5], 90%.

(Values after ChEMBL document CHEMBL4190379 (Bioorg Med Chem Lett, 2018).)
